{"source": "patent US7531555B2", "about": "“Compositions and methods for selective inhibition of nicotine acetylcholine receptors” (University of Florida Research Foundation, Inc., priority 2003, dated 2009)", "key": {"[1]": {"system": "rats", "test": "Nicotine drug discrimination in rats", "assay_type": "in vivo", "procedure": "(§1) Animals. Male ICR mice (20-25 g) obtained from Harlan Laboratories (Indianapolis, Ind.) were used throughout the study. Animals were housed in groups of six and had free access to food and water. Adult, male Long-Evans rats (350-460 g), obtained from Harlan (Dublin, Va.), were individually housed in a temperature-controlled (20-22° C.) environment with a 12-hour light-dark cycle (lights on at 7 a.m.). Rats were maintained within the indicated weight range by restricted post-session feeding and had ad libitum water in their home cages. Rats were drug-naive at the beginning of the study. Animals were housed in an AALAC approved facility and the study was approved by the Institutional Animal Care and Use Committee of Virginia Commonwealth University.\n(§2) Statistical analysis. Statistical analysis of all analgesic and in vivo studies was performed using either t-test or analysis of variance (ANOVA) with Tukey's test post hoc test when appropriate. All differences were considered significant at p<0.05. AD50 values with 95% CL for behavioral data were calculated by unweighted least-squares linear regression as described by Tallarida and Murray (Tallarida and Murray Manual of Pharmacological Calculations with Computer Programs. 1987, Springer-Verlag, New York)."}, "[2]": {"target": "T1, mouse muscle-type (α1β1εδ) nAChR (Mus musculus, UniProt P02716+P04756+P09690+P20782)", "T1 construct": "expressed in transfected cells; host or cells: Xenopus laevis oocytes injected with subunit cRNAs; clones from Dr. Jim Boulter (UCLA)", "T1 sequence (P04756 21-457)": "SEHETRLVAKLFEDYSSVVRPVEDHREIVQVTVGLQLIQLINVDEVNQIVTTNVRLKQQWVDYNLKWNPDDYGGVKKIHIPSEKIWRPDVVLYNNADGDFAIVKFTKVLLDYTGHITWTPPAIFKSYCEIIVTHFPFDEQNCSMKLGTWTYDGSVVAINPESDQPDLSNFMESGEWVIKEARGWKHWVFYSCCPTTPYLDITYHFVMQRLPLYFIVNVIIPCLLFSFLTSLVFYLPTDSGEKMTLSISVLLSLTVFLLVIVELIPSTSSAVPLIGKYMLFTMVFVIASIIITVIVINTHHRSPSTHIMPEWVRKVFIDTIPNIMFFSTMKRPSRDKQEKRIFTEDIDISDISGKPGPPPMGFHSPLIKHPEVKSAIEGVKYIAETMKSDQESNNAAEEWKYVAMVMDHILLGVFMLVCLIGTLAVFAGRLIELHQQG", "T1 sequence (P09690 24-501)": "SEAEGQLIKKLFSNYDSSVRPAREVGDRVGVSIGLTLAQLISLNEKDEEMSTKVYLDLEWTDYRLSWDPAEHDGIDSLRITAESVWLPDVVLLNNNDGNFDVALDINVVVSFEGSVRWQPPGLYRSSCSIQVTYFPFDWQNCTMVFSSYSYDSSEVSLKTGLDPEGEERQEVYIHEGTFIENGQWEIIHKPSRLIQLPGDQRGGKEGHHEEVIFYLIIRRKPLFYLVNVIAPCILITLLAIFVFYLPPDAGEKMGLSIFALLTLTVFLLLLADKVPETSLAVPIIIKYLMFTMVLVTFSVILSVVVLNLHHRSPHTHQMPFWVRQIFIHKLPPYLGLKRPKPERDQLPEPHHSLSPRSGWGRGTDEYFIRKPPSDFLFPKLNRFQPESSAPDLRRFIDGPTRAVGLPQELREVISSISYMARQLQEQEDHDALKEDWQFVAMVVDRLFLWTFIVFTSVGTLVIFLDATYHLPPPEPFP", "T1 sequence (P20782 21-493)": "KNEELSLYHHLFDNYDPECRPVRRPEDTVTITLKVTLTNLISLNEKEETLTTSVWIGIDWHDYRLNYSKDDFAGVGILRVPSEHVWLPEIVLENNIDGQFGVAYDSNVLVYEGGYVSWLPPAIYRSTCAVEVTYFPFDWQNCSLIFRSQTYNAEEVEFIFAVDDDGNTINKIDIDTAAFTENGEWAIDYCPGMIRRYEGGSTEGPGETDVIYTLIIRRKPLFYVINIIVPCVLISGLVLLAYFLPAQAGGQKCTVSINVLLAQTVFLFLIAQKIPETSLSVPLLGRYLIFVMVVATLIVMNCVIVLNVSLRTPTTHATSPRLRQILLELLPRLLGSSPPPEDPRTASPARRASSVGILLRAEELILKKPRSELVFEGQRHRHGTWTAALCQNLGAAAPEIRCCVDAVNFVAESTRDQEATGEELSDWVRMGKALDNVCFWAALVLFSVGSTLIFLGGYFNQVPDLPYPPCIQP", "T1 sequence (P02716 25-520)": "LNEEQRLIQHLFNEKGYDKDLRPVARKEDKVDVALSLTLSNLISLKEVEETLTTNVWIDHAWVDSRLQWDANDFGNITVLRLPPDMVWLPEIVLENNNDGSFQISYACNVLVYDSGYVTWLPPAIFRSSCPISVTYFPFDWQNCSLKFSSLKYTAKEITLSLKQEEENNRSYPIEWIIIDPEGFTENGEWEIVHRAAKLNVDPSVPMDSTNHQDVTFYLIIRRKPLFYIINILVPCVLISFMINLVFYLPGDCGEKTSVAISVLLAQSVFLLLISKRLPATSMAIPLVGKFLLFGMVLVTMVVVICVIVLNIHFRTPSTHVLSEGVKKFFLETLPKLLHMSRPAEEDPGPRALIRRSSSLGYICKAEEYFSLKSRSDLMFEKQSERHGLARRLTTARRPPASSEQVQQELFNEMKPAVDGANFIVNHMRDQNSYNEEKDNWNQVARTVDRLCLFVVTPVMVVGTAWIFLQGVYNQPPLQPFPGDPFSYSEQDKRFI", "test": "Voltage clamp of Xenopus oocytes expressing muscle-type nAChR", "assay_type": "cell-based"}, "[3]": {"system": "mice", "test": "Tail-flick test, blockade of nicotine-induced antinociception", "assay_type": "in vivo", "procedure": "as §1\n1. Tail-flick test. Antinociception was assessed by the tail-flick method of D'Amour and Smith (D'Amour and Smith J. P. E. T., 1941, 72:74-79) as modified by Dewey et al. (Dewey et al. J Pharmacol Exp Ther, 1970, 175:435-442). Briefly, mice were lightly restrained while a radiant heat source was shone onto the upper portion of the tail. Latency to remove the tail from the heat source was recorded for each animal. A control response (2-4 seconds) was determined for each mouse before treatment, and a test latency was determined after drug administration. In order to minimize tissue damage, a maximum latency of 10 seconds was imposed. Antinociceptive response was calculated as percent maximum possible effect (% MPE), where % MPE=[(test-control)/(10-control)]×100.\n2. Hot-plate Test. […] Two control latencies at least 10 minutes apart were determined for each mouse. […] Antinociceptive response was calculated as percent maximum possible effect (% MPE), where % MPE=[(test-control)/(40-control)×100]. The reaction time was scored when the animal jumped or licked its paws. […]\nThe doses of nicotine used in the different tests represent approximately an ED84 (Effective dose 84%) which were determined from previous works (Damaj et al. Psychopharmacology (Berl), 1995, 117:67-73). […]"}, "[4]": {"system": "mice", "test": "Locomotor activity, nicotine-induced hypomotility", "assay_type": "in vivo", "conditions": "for Locomotor Activity # Interrupts (Mean ± SEM): s.c.", "procedure": "as §1\nLocomotor activity. Mice were placed into individual Omnitech photocell activity cages (28×16.5 cm) immediately after s.c. administration of either 0.9% saline or nicotine (6.2 μmol/kg or 1 mg/kg) and were allowed to acclimate for 10 minutes. Interruptions of the photocell beams (two banks of eight cells each) were then recorded for the next 10 minutes. Data were expressed as percentage of depression where % depression=[1−(counts from nicotine-treated animals/counts from vehicle-treated animals)]×100. Mice were pretreated s.c. with either saline or TMPH 10 minutes before nicotine.\nEight to twelve mice were tested in each treatment group and each animal was tested only once.\nas §2"}, "[5]": {"conditions": "s.c. injection, at the indicated doses and times"}}, "note": "Read-outs that look alike come from different tables or passages of the source."}
{"smiles": "CCCCCCC(=O)OC1CC(C)(C)NC(C)(C)C1", "note": "[TMPH, 2,2,6,6-tetramethylpiperidin-4-yl heptanoate]", "values": [{"measurement": "effect of TMPH-nicotine combination on response rates", "setting": "[1]; compared to vehicle, any dose combination tested, p>0.05", "result": "did not alter response rates"}, {"measurement": "nicotine-lever responding by TMPH alone", "setting": "[1]; doses at which antagonism was observed (data not shown)", "result": "did not produce nicotine-lever responding"}, {"measurement": "reversibility of inhibition", "setting": "[2]; after a 5-minute wash", "result": "readily reversible"}, {"measurement": "IC50", "setting": "[2]; decrease in net charge, ACh co-applied with TMPH, read-out: IC50 (area)", "result": "390 ± 50", "unit": "nM"}, {"measurement": "IC50", "setting": "[2]; decrease in peak current amplitude, ACh co-applied with TMPH, read-out: IC50 (peak)", "result": "276 ± 20", "unit": "nM"}, {"measurement": "IC50", "setting": "[2]; inhibition still present after 5-minute wash, read-out: IC50 (recovery)", "result": "27000 ± 5500", "unit": "nM"}, {"measurement": "IC50 net charge/IC50 peak", "setting": "[2]; ratio", "result": 1.4}, {"measurement": "IC50 recovery/IC50 net charge", "setting": "[2]; ratio", "result": 69}, {"measurement": "duration of TMPH effect, tail-flick", "setting": "[3]; TMPH 5 mg/kg s.c., still significantly different from control", "result": "at least 4 hours"}, {"measurement": "time at which nicotine's effect started to recover, tail-flick", "setting": "[3]; pretreatment with TMPH 5 mg/kg", "result": "≤ 60", "unit": "min"}, {"measurement": "antinociception by TMPH itself, tail-flick", "setting": "[3]; [5]", "result": "did not cause antinociception"}, {"measurement": "effect on hypomotility induced by nicotine", "setting": "[4]; TMPH 20 mg/kg s.c. 15 minutes prior to nicotine (1.5 mg/kg)", "result": "failed to significantly reduce"}, {"measurement": "Locomotor Activity # Interrupts (Mean ± SEM)", "setting": "[4]; TMPH (20 mg/kg)/Nicotine (1.5 mg/kg)", "result": "397 ± 170 # Interrupts"}, {"measurement": "Locomotor Activity # Interrupts (Mean ± SEM)", "setting": "[4]; TMPH (20 mg/kg)/Saline", "result": "2031 ± 160 # Interrupts"}, {"measurement": "blockade of nicotine-induced hypomotility", "setting": "[4]; TMPH @ 20 mg/kg", "result": 0, "unit": "% blockade @ 20"}, {"measurement": "effect of TMPH by itself on locomotor activity", "setting": "[4]; [5]", "result": "did not have a significant effect"}]}
